Results published in publication PMC7932537, “Quantitative profiling of protease specificity” (PLoS Computational Biology, 2021).

How the values were obtained:
MMP-2 = assay: Substrate phage display with NGS: relative probability (RP) of P3-P1' tetramer clusters; assay type: biochemical, human; conditions: for MMP2 relative probability (RP): MMP2 tetramers from unique substrates, unrounded values; for relative probability (RP) of matching tetramer: P3-P1' tetramer matching the MS detected MMP2 cleavage sequence, RP_above_4.5; for normalized RP - MMP2: normalized RP of matching tetramer; for avg_RP: MMP2 - no binning
MMP-9 = assay: as above; assay type: biochemical, human; conditions: for corresponding MMP9 relative probability (RP): MMP2 tetramers from unique substrates, RP of same tetramer for MMP9; for normalized RP - MMP9: normalized RP of matching tetramer
[1] = RP of the P3-P1' tetramer, MMP2 substrate phage display/NGS, tetramers of physiologic MEROPS substrates common to MMP2 and MMP9
[2] = RP of the P3-P1' tetramer, MMP9 substrate phage display/NGS, tetramers of physiologic MEROPS substrates common to MMP2 and MMP9
[3] = RP according to MMP2, P3-P1' tetramer of unique physiologic MMP2 substrates from MEROPS
[4] = RP according to MMP9, P3-P1' tetramer of unique physiologic MMP9 substrates from MEROPS
[5] = RP of the P3-P1' tetramer cluster contained in the hexamer, 200 nM MMP-2, 2 h, 37°C, two rounds of selection
[6] = MMP9, RP of the P3-P1' tetramer contained in the hexamer substrate (substrate phage display, NGS)
[7] = RP of matching tetramer, unique part of MMP2 selectome, RP above KL threshold
[8] = RP of matching tetramer, unique part of MMP2 selectome
[9] = MMP2, RP of matching P3-P1' tetramer, common set of MMP2-9 selectome, RP above KL threshold
[10] = MMP9, RP of matching P3-P1' tetramer, common set of MMP2-9 selectome
[11] = RP of matching tetramer, common MMP2-9 selectome
[12] = MMP9, RP of the P3-P1' tetramer matching the MS detected cleavage, RP above 4.7, substrate phage display with NGS
[13] = RP of matching tetramer, common MMP2-9 selectome, RP above KL threshold
[14] = average relative probability of the tetramer, redundant tetramers averaged out

With ASDY the “relative probability (RP) (acc.to MMP2)” value (MMP-2; [1]) was 0.78 and the “relative probability (RP) (acc.to MMP9)” value (MMP-9; [2]) was 0.38.
With PIQW the “MMP2 relative probability (RP)” value (MMP-2) was 8.258, the “Relative probability (RP) rank” value (MMP-2; [3]) was 5694 and the “relative probability (RP)” value (MMP-2; [3]) was 8.26. The “relative probability (RP) (acc.to MMP2)” value (MMP-2; [1]) was 8.26, the “corresponding MMP9 relative probability (RP)” value (MMP-9) was 1.638 and the “Relative probability (RP) rank” value (MMP-9; [4]) was 11221. For the same substance, the “relative probability (RP)” value (MMP-9; [4]) was 1.64 and the “relative probability (RP) (acc.to MMP9)” value (MMP-9; [2]) was 1.64.
In the case of PKALPY, the “relative probability (RP)” value (MMP-2; [5]) is reported as 34.4858 and the “relative probability (RP)” value (MMP-9; [6]) is reported as 48.3581.
For PQGL, the “relative probability (RP) (acc.to MMP2)” value (MMP-2; [1]) was 33.52 and the “relative probability (RP) (acc.to MMP9)” value (MMP-9; [2]) was 47.86.
With PAVM the “MMP2 relative probability (RP)” value (MMP-2) was 17.6491, the “Relative probability (RP) rank” value (MMP-2; [3]) was 2339 and the “relative probability (RP)” value (MMP-2; [3]) was 17.65. For the same substance, the “corresponding MMP9 relative probability (RP)” value (MMP-9) was 4.1214.
For QPLEIR, the “relative probability (RP)” value (MMP-2; [5]) was 19.9123 and the “relative probability (RP)” value (MMP-9; [6]) was 43.9826.
For NRGF, the “relative probability (RP) of matching tetramer” value (MMP-2) was 6.81, the “relative probability (RP) (acc.to MMP2)” value (MMP-2; [7]) was 6.81 and the “normalized RP - MMP2” value (MMP-2; unique part of MMP2 selectome) was 0.1865. The “relative probability (RP) (acc.to MMP9)” value (MMP-9; [8]) was 0 and the “normalized RP - MMP9” value (MMP-9; unique part of MMP2 selectome) was 0.
With ANPV the “relative probability (RP) (acc.to MMP2)” value (MMP-2; [1]) was 0.04 and the “relative probability (RP) (acc.to MMP9)” value (MMP-9; [2]) was 0.33.
In the case of VSSL, the avg_RP (MMP-2; average relative probability of the P3-P1' tetramer, redundant tetramers have been averaged out) is reported as 29.0891, the “relative probability (RP) (acc.to MMP2)” value (MMP-2; [9]) is reported as 29.09 and the “relative probability (RP) of matching tetramer” value (MMP-2) is reported as 29.09. The “relative probability (RP) (acc.to MMP9)” value (MMP-9; [10]) was 17.98.
HARL was tested, and the “MMP2 relative probability (RP)” value (MMP-2) was 17.6482, the “Relative probability (RP) rank” value (MMP-2; [3]) was 2341 and the “relative probability (RP)” value (MMP-2; [3]) was 17.65. For the same substance, the “corresponding MMP9 relative probability (RP)” value (MMP-9) was 0.3259.
For PGAY, the “relative probability (RP) (acc.to MMP2)” value (MMP-2; [1]) was 27.42 and the “relative probability (RP) (acc.to MMP9)” value (MMP-9; [2]) was 33.81.
In the case of MASQ, the “MMP2 relative probability (RP)” value (MMP-2) is reported as 16.7049, the “Relative probability (RP) rank” value (MMP-2; [3]) is reported as 2583 and the “relative probability (RP)” value (MMP-2; [3]) is reported as 16.7. The “corresponding MMP9 relative probability (RP)” value (MMP-9) was 0.
In the case of PHNILS, the “relative probability (RP)” value (MMP-2; [5]) is reported as 24.3767 and the “relative probability (RP)” value (MMP-9; [6]) is reported as 42.0557.
For PFLI, the “corresponding MMP2 relative probability (RP)” value (MMP-2; MMP9 tetramers from unique substrates, RP of same tetramer for MMP2) was 22.6532 and the “MMP9 relative probability (RP)” value (MMP-9; MMP9 tetramers from unique substrates, unrounded values) was 0.05937.
For PTGK, the “relative probability (RP) (acc.to MMP2)” value (MMP-2; [1]) was 0.04 and the “relative probability (RP) (acc.to MMP9)” value (MMP-9; [2]) was 0.
LGRY was tested, and the “relative probability (RP) of matching tetramer” value (MMP-2) was 17.67, the “relative probability (RP) (acc.to MMP2)” value (MMP-2; [7]) was 17.67 and the “normalized RP - MMP2” value (MMP-2; unique part of MMP2 selectome) was 0.4838. For the same substance, the “relative probability (RP) (acc.to MMP9)” value (MMP-9; [8]) was 1.95 and the “normalized RP - MMP9” value (MMP-9; unique part of MMP2 selectome) was 0.03723.
For PVAV, the “relative probability (RP) (acc.to MMP2)” value (MMP-2; [9]) was 27.53, the “relative probability (RP) of matching tetramer” value (MMP-2) was 27.53 and the “relative probability (RP) (acc.to MMP2)” value (MMP-2; [11]) was 27.53. The “relative probability (RP) (acc.to MMP9)” value (MMP-9; [10]) was 32.82, the “relative probability (RP)” value (MMP-9; [12]) was 32.82 and the “relative probability (RP) (acc.to MMP9)” value (MMP-9; [13]) was 32.82.
With LAPL [P3-P1' tetramer cluster] the “MMP2 relative probability (RP)” value (MMP-2) was 31.5631, the “Relative probability (RP) rank” value (MMP-2; [3]) was 227 and the “relative probability (RP)” value (MMP-2; [3]) was 31.56. The relative_probability (MMP-2; tetramer clusters unique to the MMP-2 selectome, MMP-2 RP) was 31.56 and the “corresponding MMP9 relative probability (RP)” value (MMP-9) was 4.642.
With PEGLQG the “relative probability (RP)” value (MMP-2; [5]) was 29.5031 and the “relative probability (RP)” value (MMP-9; [6]) was 39.4116.
In the case of PSQM, the “relative probability (RP) (acc.to MMP2)” value (MMP-2; [1]) is reported as 27.24 and the “relative probability (RP) (acc.to MMP9)” value (MMP-9; [2]) is reported as 37.02.
PMAM [P3-P1' tetramer cluster] was tested, and the avg_RP (MMP-2; [14]) was 30.2676 and the “relative probability (RP)” value (MMP-9; tetramer probability in MMP9 set / naive library, 200 nM protease, 2 h, 37°C) was 51.1831.
In the case of PQPLDL, the “relative probability (RP)” value (MMP-2; [5]) is reported as 30.3595 and the “relative probability (RP)” value (MMP-9; [6]) is reported as 47.1306.
With LSKI the “MMP2 relative probability (RP)” value (MMP-2) was 4.524, the “Relative probability (RP) rank” value (MMP-2; [3]) was 7909 and the “relative probability (RP)” value (MMP-2; [3]) was 4.52. The “relative probability (RP) (acc.to MMP2)” value (MMP-2; [1]) was 4.52, the “corresponding MMP9 relative probability (RP)” value (MMP-9) was 0.06898 and the “Relative probability (RP) rank” value (MMP-9; [4]) was 65498. The “relative probability (RP)” value (MMP-9; [4]) was 0.07 and the “relative probability (RP) (acc.to MMP9)” value (MMP-9; [2]) was 0.07.
With IRPKHF the “relative probability (RP)” value (MMP-2; [5]) was 19.1404 and the “relative probability (RP)” value (MMP-9; [6]) was 30.1694.
QGPAAI was tested, and the “relative probability (RP)” value (MMP-2; [5]) was 32.0972 and the “relative probability (RP)” value (MMP-9; [6]) was 46.1642.
With PGPAGQ the “relative probability (RP)” value (MMP-2; [5]) was 28.0249 and the “relative probability (RP)” value (MMP-9; [6]) was 28.6679.
PEPAAL was tested, and the “relative probability (RP)” value (MMP-2; [5]) was 35.8015 and the “relative probability (RP)” value (MMP-9; [6]) was 47.6262.
With PTGL the avg_RP (MMP-2; [14]) was 33.1098, the “relative probability (RP) (acc.to MMP2)” value (MMP-2; [1]) was 33.11 and the “relative probability (RP) (acc.to MMP9)” value (MMP-9; [2]) was 39.89.
For HFFK, the “relative probability (RP) (acc.to MMP2)” value (MMP-2; [1]) was 0.14 and the “relative probability (RP) (acc.to MMP9)” value (MMP-9; [2]) was 0.27.
In the case of PMFI, the “relative probability (RP) (acc.to MMP2)” value (MMP-2; [11]) is reported as 8.26, the “relative probability (RP)” value (MMP-9; [12]) is reported as 35.87 and the “relative probability (RP) (acc.to MMP9)” value (MMP-9; [13]) is reported as 35.87.
VTPR was tested, and the “relative probability (RP) (acc.to MMP2)” value (MMP-2; [1]) was 0.18 and the “relative probability (RP) (acc.to MMP9)” value (MMP-9; [2]) was 0.46.
RRPRPL was tested, and the “relative probability (RP)” value (MMP-2; [5]) was 34.3303 and the “relative probability (RP)” value (MMP-9; [6]) was 46.7888.
